Measured values published in US20040106678A1, “Compositions for the parenteral administration of calcium and magnesium” (priority 2002, published 2004).

Experiments:
pH of aqueous solution = format: physicochemical
[1] = stability of the powder / shelf life; format: physicochemical
[2] = toxicity / tolerability on parenteral use; settings: anion is a naturally occurring mammalian metabolite
[3] = parenteral administration; cited from earlier work
[4] = saturated aqueous solution at 20° C.; cited from earlier work

## calcium 3-hydroxy-3-methylbutyrate [CaHMB]
pH of aqueous solution; 27% by weight saturated aqueous solution at 20° C.
  pH of saturated aqueous solution: neutral or slightly alkaline
pH of aqueous solution; if pure, dissolved in distilled water
  pH of aqueous solution in distilled water: nearly neutral or slightly alkaline
[1]
  powder stability / shelf life: stable powders with long shelf lives
[2]
  toxicity: non-toxic

## [Ca+2].[Cl-].[Cl-] [Calcium chloride]
[3]
  venous toxicity: appreciably toxic to veins

## D-gluconic acid calcium salt [Calcium gluconate]
[4]
  pH of saturated solution: 6-7
